Experimental data from article PMC9684503 (Communications Biology, 2022).
Where “and” joins values, the source holds several entries; their conditions need not be identical. Equal values may be shown once.

How the values were obtained:
[1] = molecular target: T1, rat VMAT2-His (Rattus norvegicus, UniProt Q01827); assay: Differential scanning fluorimetry (DSF) with CPM dye: change of melting temperature of purified VMAT2; assay type: binding
T1 construct: The ORF of rat VMAT2 was subcloned into a pFastBac vector; His; made in house; host or cells: Sf9 insect cells (baculovirus)
T1 sequence (Q01827 whole entry): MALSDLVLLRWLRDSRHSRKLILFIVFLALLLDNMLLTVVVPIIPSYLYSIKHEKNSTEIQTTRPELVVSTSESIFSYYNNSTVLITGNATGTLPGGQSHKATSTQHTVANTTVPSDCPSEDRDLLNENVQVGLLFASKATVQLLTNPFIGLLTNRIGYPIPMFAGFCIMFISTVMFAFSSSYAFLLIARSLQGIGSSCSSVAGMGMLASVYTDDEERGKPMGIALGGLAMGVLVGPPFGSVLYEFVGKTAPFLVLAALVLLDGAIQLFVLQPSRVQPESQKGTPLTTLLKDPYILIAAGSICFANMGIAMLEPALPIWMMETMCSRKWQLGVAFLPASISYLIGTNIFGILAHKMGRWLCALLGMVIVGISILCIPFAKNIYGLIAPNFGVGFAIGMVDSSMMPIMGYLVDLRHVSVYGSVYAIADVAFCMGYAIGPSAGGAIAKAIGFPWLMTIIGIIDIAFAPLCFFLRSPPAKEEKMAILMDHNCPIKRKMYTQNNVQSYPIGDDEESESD
Procedure, shortened: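 Rat VMAT2-His from Sf9 baculovirus cells, purified by IMAC and SEC in DDM/CHS micelles, was screened by CPM-dye DSF over a 25–95 °C ramp at 2 °C/min. Tm was taken from the second derivative of the melting curve. Hits were validated in triplicate at 200 μM, with ΔTm > 5× SD as the cutoff.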

[2] = molecular target: T2, human VMAT2 (Homo sapiens, UniProt Q05940); assay: FFN206 uptake assay in transfected Hek293 cells; assay type: cell-based; conditions: Table S1, substrate uptake assays in transfected Hek293 cells
T2 construct: expressed in transfected cells; host or cells: Hek293 cells, transient
T2 sequence (Q05940 whole entry): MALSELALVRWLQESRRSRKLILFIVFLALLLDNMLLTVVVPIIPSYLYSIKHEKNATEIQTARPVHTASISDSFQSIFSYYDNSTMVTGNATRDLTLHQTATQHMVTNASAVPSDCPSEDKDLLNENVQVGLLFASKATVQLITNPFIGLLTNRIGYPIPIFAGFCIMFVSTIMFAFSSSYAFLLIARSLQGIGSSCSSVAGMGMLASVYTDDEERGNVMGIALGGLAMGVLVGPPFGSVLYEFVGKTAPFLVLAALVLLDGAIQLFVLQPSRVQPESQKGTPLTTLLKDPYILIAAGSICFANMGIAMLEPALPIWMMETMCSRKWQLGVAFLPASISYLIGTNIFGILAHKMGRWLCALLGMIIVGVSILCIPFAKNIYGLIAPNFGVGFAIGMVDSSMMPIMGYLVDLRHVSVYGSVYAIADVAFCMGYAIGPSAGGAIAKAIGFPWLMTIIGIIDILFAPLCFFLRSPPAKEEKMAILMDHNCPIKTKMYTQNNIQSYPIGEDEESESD

[3] = molecular target: T3, human VMAT1 (Homo sapiens, UniProt P54219); assay: FFN206 uptake assay in transfected Hek293 cells; assay type: cell-based; conditions: Table S1, substrate uptake assays in transfected Hek293 cells
T3 construct: expressed in transfected cells; host or cells: Hek293 cells, transient
T3 sequence (P54219 1-525): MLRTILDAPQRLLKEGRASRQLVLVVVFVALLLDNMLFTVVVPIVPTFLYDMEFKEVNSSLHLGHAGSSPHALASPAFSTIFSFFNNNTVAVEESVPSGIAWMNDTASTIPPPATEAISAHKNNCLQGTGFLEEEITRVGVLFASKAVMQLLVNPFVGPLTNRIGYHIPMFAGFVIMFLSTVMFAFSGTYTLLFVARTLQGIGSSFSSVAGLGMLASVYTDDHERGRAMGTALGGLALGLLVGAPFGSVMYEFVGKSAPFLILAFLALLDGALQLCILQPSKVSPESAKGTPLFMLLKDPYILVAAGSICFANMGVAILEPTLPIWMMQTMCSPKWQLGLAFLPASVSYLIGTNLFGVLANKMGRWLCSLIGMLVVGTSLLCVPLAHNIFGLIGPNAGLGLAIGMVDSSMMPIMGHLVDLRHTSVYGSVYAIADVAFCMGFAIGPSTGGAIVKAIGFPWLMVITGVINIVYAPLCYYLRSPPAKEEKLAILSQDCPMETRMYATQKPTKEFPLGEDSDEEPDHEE

[4] = molecular target: T4, VMAT2 (Rattus norvegicus, UniProt Q01827); conditions: hek293 cells, 50 µM
T4 sequence (Q01827 whole entry): as the sequence (Q01827 whole entry) above
Experimental: (§1) We preincubated cells expressing VMAT2 with 50 μM compounds and measured [^3H]-DTBZ binding (5 nM) to the sample (Fig. 3a). […] Hek293 cells were grown and transfected with pcDNA3.1 VMAT2-His as described above. Two days after transfection, cells were harvested, washed and transferred to 96 well MultiScreen FB filter plates (Millipore). […] Cells were washed 3 times with ice cold PBS and 50 µl Ultima Gold LLL (PerkinElmer) was added to each well. […] After a 20 min incubation at 37 °C, cells were washed and [^3H] scintillation counting was performed as described above.

[5] = molecular target: rat VMAT2 Q143A (Rattus norvegicus, UniProt Q01827, Q143A); assay: FFN206 uptake assay, VMAT2 mutant
Chain of rat VMAT2 Q143A (Q01827 whole entry Q143A): as the sequence (Q01827 whole entry) above, with Q143A counted along it
Experimental: (§2) For activity assays, [^3H]-DTBZ and [^3H]-SMT binding and competition assays (see section below), several VMAT2 mutants were prepared. […] In addition, a selection of rVMAT2 mutants carrying mutations designed from binding modes identified by docking and MD-simulation was prepared in a pcDNA3.1 rVMAT2-Strep tag II plasmid.

[6] = molecular target: rat VMAT2 P314A (Rattus norvegicus, UniProt Q01827, P314A); assay: FFN206 uptake assay, VMAT2 mutant
Chain of rat VMAT2 P314A (Q01827 whole entry P314A): as the sequence (Q01827 whole entry) above, with P314A counted along it
Experimental: as §2

[7] = molecular target: rat VMAT2 Y434A (Rattus norvegicus, UniProt Q01827, Y434A); assay: FFN206 uptake assay, VMAT2 mutant
Chain of rat VMAT2 Y434A (Q01827 whole entry Y434A): as the sequence (Q01827 whole entry) above, with Y434A counted along it
Experimental: as §2

[8] = molecular target: rat VMAT2 (Rattus norvegicus, UniProt Q01827); assay: FFN206 uptake assay in transfected Hek293 cells
Chain of rat VMAT2 (Q01827 whole entry): as the sequence (Q01827 whole entry) above

[9] = molecular target: T4, VMAT2; assay: [3H]-DTBZ competition assay in Hek293 cells expressing VMAT2;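 on all read-outs here: HEK293 cells transfected with VMAT2, pretreated 30 min with compound, then given 5 nM [3H]-DTBZ for 20 min at 37 °C, bound label read by scintillation counting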; conditions: for [3H]-DTBZ binding relative to no compound (=1), replicate samples: Fig. 3b source data
Experimental: as §1

Structure (SMILES): OCc1cc(C(O)CNCCCCCCOCCCCc2ccccc2)ccc1O (stereo not shown) [Salmeterol]
- ΔTm ([1]; Table 1, DSF screening, mean ± SD of triplicates): 9.71 ± 0.22 oC
- ΔTm at 12 µM ([1]; Table S2 dose response, compound 0,12 µM, read-out: ΔTm): 5.78 °C
- ΔTm at 37 µM ([1]; Table S2 dose response, compound 0,37 µM, read-out: ΔTm): 6.25 °C
- ΔTm at 10 µM ([1]; Table S2 dose response, compound 10 µM, read-out: ΔTm): 7.48 °C
- ΔTm at 30 µM ([1]; Table S2 dose response, compound 30 µM, read-out: ΔTm): 7.9 °C
- ΔTm at 90 µM ([1]; Table S2 dose response, compound 90 µM, read-out: ΔTm): 8.7 °C
- ΔTm at 270 µM ([1]; Table S2 dose response, compound 270 µM, read-out: ΔTm): 10.5 °C
- ΔTm at 11 µM ([1]; Table S2 dose response, compound 1,11 µM, read-out: ΔTm): 6.55 °C
- ΔTm at 33 µM ([1]; Table S2 dose response, compound 3,33 µM, read-out: ΔTm): 7.04 °C
- IC50 [2]: 35 ± 16 nM
- IC50 [3]: 23 ± 2 nM
- activity [4]: 0.37 ± 2.83%
- IC50 [5]: 148 ± 33 nM
- IC50 [6]: 234 ± 65 nM
- IC50 [7]: 126 ± 87 nM
- IC50 [8]: 53 ± 28 nM
- VMAT2-specific FFN206 uptake relative to DMSO (=1), replicate samples ([8]; Fig. 2a source data, 25 μM compound): 0.01652 and -0.1153 and -0.05311 and -0.0161
- FFN206 uptake relative to no compound (=1), replicate samples ([8]; Fig. 2b/2c source data, compound 0.0152 μM): 0.8683 and 0.9316 and 0.8545 and 0.8755 and 0.7872 and 0.8834 and 0.9116 and 0.9363
- FFN206 uptake relative to no compound (=1), replicate samples ([8]; Fig. 2b/2c source data, compound 0.1372 μM): 0.4384 and 0.5181 and 0.4428 and 0.5409 and 0.2594 and 0.3377 and 0.3056 and 0.4141
- FFN206 uptake relative to no compound (=1), replicate samples ([8]; Fig. 2b/2c source data, compound 0.4115 μM): 0.2986 and 0.3445 and 0.2962 and 0.3132 and 0.1258 and 0.1847 and 0.149 and 0.1946
- FFN206 uptake relative to no compound (=1), replicate samples ([8]; Fig. 2b/2c source data, compound 1.2346 μM): 0.2192 and 0.2619 and 0.2463 and 0.2625 and -0.00094 and 0.06663 and 0.05805 and 0.07997
- FFN206 uptake relative to no compound (=1), replicate samples ([8]; Fig. 2b/2c source data, compound 3.7037 μM): 0.2883 and 0.2538 and 0.257 and 0.1826 and 0.05594 and 0.1039 and 0.07279 and 0.105
- FFN206 uptake relative to no compound (=1), replicate samples ([8]; Fig. 2b/2c source data, compound 11.1111 μM): 0.2315 and 0.2175 and 0.2018 and 0.1642 and 0.02429 and 0.09314 and 0.05353 and 0.1229
- FFN206 uptake relative to no compound (=1), replicate samples ([8]; Fig. 2b/2c source data, compound 100.0000 μM): 0.2045 and 0.2463 and 0.2058 and 0.2286 and -0.0325 and 0.06428 and 0.00994 and 0.07
- FFN206 uptake relative to no compound (=1), replicate samples ([8]; Fig. 2c source data, compound 0.0017 μM): 0.9528 and 0.9756 and 1.008 and 0.9844
- effect on [3H]-DTBZ binding compared with DMSO control (one-way ANOVA, p < 0.001) ([9]; 50 μM compound): statistically significantly effect
- [3H]-DTBZ binding relative to no compound (=1), replicate samples ([9]; compound 0.0017): 0.6032 and 1.156 and 0.8878 and 0.838
- [3H]-DTBZ binding relative to no compound (=1), replicate samples ([9]; compound 0.0051): 0.6168 and 0.8711 and 1.077 and 0.9012
- [3H]-DTBZ binding relative to no compound (=1), replicate samples ([9]; compound 0.0152): 0.7563 and 1.108 and 1.007
- [3H]-DTBZ binding relative to no compound (=1), replicate samples ([9]; compound 0.0457): 0.5988 and 0.6867 and 0.7774 and 0.6452
- [3H]-DTBZ binding relative to no compound (=1), replicate samples ([9]; compound 0.1372): 0.4074 and 0.4854 and 0.3736 and 0.3232
- [3H]-DTBZ binding relative to no compound (=1), replicate samples ([9]; compound 0.4115): 0.02476 and 0.03862 and 0.09845 and 0.04206
- [3H]-DTBZ binding relative to no compound (=1), replicate samples ([9]; compound 1.2346): 0.01432 and 0.02317 and 0.00733 and 0.04172
- [3H]-DTBZ binding relative to no compound (=1), replicate samples ([9]; compound 3.7037): 0.02156 and 0.02614 and 0.01787 and 0.1343
- [3H]-DTBZ binding relative to no compound (=1), replicate samples ([9]; compound 11.1111): -0.04565 and 0.05011 and -0.00482 and -0.01021
- [3H]-DTBZ binding relative to no compound (=1), replicate samples ([9]; compound 33.3333): -0.01836 and -0.0105 and -0.00518 and -0.00848
- [3H]-DTBZ binding relative to no compound (=1), replicate samples ([9]; compound 100.0000 (μM per methods)): 0.02729 and -0.01624 and -0.00322 and -0.00727
